Reference: ChEMBL document CHEMBL4196089, “Design, synthesis, biological evaluation and in vivo testing of dual phosphodiesterase 5 (PDE5) and histone deacetylase 6 (HDAC6)-selective inhibitors for the treatment of Alzheimer's disease” (Eur J Med Chem, 2018)

Experiments:
Histone deacetylase 2 = Histone deacetylase 2 (Homo sapiens, UniProt Q92769); experiment: Inhibition of full length human recombinant C-terminal His-tagged HDAC2 expressed in baculovirus infected sf9 cells using fluorogenic HDAC substrate 3 after 30 mins by fluorescence assay
[1] = molecular target: cGMP-specific 3',5'-cyclic phosphodiesterase (Homo sapiens, UniProt O76074); experiment: Inhibition of full length human recombinant N-terminal GST-tagged PDE5A1 expressed in baculovirus infected sf9 cells using cGMP as substrate after 30 mins by fluorescence assay
[2] = Cytotoxicity against human THLE2 cells after 72 hrs by vialight cell proliferation assay; format: cell-based, THLE-2; conditions: read-out: LC50
[3] = Effective permeability of the compound at 50 uM after 18 hrs by UV spectroscopy based PAMPA; format: ADME; conditions: read-out: Peff
[4] = Selectivity ratio of compound effect for inhibition of HDAC6 in human SH-SY5Y cells assessed as induction of tubulin K-40 acetylation level to compound effect for inhibition of class-1 HDAC in human SH-SY5Y cells assessed as induction of AcH3K9 level; format: functional
CYP2C19 = CYP2C19 (Homo sapiens, UniProt P33261); experiment: Inhibition of CYP2C19 in human liver microsomes at 10 uM after 10 mins in presence of NADPH by LC-MS/MS analysis relative to control; format: ADME
[5] = molecular target: High affinity cGMP-specific 3',5'-cyclic phosphodiesterase 9A (Homo sapiens, UniProt O76083); experiment: Inhibition of full length human recombinant N-terminal GST-tagged PDE9A2 expressed in baculovirus infected sf9 cells using cGMP as substrate after 30 mins by fluorescence assay
[6] = molecular target: cGMP-inhibited 3',5'-cyclic phosphodiesterase 3A (Homo sapiens, UniProt Q14432); experiment: Inhibition of PDE3A (unknown origin) using FAM-cGMP as substrate by fluorescence assay
Histone deacetylase 4 = Histone deacetylase 4 (Homo sapiens, UniProt P56524); experiment: Inhibition of human HDAC4
Mus musculus = experiment: Cognitive enhancing effect in Tg2576 mouse model of Alzheimer's disease assessed as long term associative memory improvement by measuring freezing after electric shock at 40 mg/kg, ip for 2 weeks measured at 24 hrs post electric shock (reference value: 54%); format: functional
cells [7] = conditions: Homo sapiens, SH-SY5Y, 2 h, read-out: FC
cells [8] = conditions: Homo sapiens, SH-SY5Y, 2 h, read-out: FC; remark: listed apart in the source

Chain of Histone deacetylase 2 (Q92769 whole entry): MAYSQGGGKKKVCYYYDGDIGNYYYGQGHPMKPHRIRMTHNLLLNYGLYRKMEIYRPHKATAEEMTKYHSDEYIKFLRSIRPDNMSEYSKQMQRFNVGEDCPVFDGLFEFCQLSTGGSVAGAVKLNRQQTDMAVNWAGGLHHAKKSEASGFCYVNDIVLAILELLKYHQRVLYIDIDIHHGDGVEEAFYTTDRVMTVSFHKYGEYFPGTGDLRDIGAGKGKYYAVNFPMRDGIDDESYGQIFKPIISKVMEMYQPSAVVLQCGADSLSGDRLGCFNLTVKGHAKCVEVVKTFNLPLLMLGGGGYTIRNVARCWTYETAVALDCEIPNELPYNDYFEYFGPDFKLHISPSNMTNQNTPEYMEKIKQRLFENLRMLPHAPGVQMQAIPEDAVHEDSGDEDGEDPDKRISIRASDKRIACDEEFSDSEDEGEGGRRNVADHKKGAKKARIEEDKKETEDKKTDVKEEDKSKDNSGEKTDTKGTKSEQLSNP
Chain of CYP2C19 (P33261 whole entry): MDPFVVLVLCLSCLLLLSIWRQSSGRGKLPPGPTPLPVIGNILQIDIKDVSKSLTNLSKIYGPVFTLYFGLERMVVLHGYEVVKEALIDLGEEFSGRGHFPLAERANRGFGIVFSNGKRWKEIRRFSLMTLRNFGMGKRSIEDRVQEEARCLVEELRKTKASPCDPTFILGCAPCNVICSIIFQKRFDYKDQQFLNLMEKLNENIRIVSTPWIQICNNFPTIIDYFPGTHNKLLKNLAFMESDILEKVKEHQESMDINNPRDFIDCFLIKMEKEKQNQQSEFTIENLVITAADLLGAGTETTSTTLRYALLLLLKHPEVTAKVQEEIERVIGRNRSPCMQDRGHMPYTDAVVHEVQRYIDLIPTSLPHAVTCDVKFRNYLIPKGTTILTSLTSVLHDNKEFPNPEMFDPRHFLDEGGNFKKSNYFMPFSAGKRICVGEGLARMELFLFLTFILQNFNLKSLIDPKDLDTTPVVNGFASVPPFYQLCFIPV
Chain of cGMP-inhibited 3',5'-cyclic phosphodiesterase 3A (Q14432 whole entry): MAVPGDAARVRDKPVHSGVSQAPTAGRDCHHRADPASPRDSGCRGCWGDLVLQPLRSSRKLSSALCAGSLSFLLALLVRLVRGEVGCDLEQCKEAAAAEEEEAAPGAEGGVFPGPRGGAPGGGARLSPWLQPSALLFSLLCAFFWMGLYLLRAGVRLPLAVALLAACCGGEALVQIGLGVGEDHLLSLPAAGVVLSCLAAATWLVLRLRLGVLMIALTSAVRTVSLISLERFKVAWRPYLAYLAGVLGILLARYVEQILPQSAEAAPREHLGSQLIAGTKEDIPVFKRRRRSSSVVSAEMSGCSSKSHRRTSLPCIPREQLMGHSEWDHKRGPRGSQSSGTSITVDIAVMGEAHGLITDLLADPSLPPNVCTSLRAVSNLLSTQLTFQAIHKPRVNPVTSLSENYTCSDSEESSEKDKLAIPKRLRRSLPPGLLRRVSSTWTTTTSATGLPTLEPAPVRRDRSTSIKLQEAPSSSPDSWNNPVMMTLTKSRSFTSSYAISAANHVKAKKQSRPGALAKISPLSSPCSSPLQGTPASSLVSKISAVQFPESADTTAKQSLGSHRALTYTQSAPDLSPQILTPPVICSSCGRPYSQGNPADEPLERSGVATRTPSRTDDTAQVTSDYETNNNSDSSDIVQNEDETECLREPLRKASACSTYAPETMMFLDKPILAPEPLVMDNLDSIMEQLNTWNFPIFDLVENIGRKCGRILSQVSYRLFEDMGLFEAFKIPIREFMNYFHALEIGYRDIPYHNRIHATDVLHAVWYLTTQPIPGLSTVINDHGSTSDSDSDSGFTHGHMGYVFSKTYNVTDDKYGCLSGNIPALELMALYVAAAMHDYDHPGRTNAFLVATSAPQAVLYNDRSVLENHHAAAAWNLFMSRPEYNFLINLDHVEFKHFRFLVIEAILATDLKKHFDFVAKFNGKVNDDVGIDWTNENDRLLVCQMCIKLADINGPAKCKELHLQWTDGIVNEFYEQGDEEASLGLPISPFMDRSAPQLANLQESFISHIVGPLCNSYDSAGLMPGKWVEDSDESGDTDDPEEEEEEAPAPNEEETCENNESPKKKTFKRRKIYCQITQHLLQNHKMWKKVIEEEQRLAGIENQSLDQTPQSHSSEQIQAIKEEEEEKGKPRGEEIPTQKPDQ
Chain of Histone deacetylase 4 (P56524 whole entry): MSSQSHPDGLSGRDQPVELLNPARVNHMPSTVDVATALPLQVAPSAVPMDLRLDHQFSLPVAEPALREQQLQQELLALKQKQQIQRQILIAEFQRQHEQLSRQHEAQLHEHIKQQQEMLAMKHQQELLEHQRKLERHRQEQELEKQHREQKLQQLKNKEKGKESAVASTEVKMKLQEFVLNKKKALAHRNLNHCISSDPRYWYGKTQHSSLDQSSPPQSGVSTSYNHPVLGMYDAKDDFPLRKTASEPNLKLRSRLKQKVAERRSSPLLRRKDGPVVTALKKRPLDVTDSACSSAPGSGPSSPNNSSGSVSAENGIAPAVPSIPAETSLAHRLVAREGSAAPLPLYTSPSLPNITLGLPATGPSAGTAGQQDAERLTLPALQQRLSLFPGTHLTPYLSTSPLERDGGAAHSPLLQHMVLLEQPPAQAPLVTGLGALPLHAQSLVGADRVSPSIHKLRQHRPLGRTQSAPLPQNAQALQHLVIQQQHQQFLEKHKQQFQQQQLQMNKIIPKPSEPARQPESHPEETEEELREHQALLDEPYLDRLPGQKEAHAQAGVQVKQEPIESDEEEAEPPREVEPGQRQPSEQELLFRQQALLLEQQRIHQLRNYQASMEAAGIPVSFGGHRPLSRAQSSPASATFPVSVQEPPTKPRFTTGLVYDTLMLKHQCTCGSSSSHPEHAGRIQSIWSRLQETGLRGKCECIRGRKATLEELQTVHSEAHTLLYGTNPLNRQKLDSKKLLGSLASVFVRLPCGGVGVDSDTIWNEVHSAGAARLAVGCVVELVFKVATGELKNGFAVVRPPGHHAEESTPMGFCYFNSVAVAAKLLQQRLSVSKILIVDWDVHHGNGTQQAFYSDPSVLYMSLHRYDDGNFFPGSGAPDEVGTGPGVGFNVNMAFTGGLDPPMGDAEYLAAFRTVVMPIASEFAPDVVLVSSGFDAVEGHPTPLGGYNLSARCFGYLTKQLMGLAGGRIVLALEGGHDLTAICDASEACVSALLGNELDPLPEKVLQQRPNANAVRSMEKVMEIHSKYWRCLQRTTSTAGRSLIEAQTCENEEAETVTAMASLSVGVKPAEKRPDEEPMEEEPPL
Chain of High affinity cGMP-specific 3',5'-cyclic phosphodiesterase 9A (O76083 whole entry): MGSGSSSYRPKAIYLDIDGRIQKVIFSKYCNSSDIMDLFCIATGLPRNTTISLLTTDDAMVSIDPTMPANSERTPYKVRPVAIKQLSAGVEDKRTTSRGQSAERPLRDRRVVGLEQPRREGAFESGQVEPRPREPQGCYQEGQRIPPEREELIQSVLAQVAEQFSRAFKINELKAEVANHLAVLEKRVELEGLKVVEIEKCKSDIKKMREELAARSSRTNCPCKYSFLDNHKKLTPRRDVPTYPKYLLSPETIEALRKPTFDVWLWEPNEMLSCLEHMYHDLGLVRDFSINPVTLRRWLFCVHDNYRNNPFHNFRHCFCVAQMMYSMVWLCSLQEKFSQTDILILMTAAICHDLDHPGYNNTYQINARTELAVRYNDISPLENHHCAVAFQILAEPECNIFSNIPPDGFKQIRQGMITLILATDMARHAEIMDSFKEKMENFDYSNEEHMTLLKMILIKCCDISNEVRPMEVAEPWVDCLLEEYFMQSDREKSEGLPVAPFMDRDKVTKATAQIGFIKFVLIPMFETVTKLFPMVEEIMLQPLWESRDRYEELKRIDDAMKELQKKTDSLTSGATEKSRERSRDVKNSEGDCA

## CCCc1nn(C)c2c(=O)[nH]c(-c3cc(Cc4ccc(C(=O)NO)s4)ccc3OCC)nc12
Histone deacetylase 2
  IC50: 3.72 µM
[1]
  IC50: 0.011 µM
[2]
  CC50 at 72 h: 6.81 µM
[3]
  Papp at 18 h, 50 µM: 2.91 ×10⁻⁶ cm/s
[4]
  Selectivity ratio: >5
CYP2C19
  inhibition at 10 min, 10 µM: < 50%
[5]
  IC50: > 10 µM
[6]
  IC50: 3.2 µM
Histone deacetylase 4
  IC50: > 10 µM
Mus musculus
  Activity: 68%
Cells [7]
  fold induction at 0.1 µM: 1.8
Cells [8]
  fold induction at 1 µM: 12.1
